Target: SARS 3CL^pro (Severe acute respiratory syndrome coronavirus, UniProt P0C6U8)

acetyl-leucyl-alanyl-alanyl-ketomethyl(cycloglutamine)-phthalhydrazide [inhibitor 2]
bonding mode to Cys145, soaking: the episulfide and the deacylating (major) mixed forms

From publication PMC7094781 (Journal of Molecular Biology, 2007)
